Consider two compounds from PMC8234218, “In Vitro and In Vivo Efficacies of the Linear and the Cyclic Version of an All-D-Enantiomeric Peptide Developed for the Treatment of Alzheimer’s Disease” (International Journal of Molecular Sciences, 2021).

Data set [1] in a line: Proteolytic stability in human liver microsomes. Format: in vitro ADME. The protocol: Both compounds have already been extensively studied with respect to their in vivo pharmacokinetic profiles. Here, we performed some additional test to investigate the proteolytic stability of the compounds in simulated gastric (SGF) and intestinal fluid (SIF) and human plasma and human liver microsomes. The experiments were performed as described previously. According to the guidelines of the European Pharmacopoeia 7.0, SGF and SIF were prepared. Plasma was purchased from Biotrend with K3-EDTA as an anticoagulant (Biotrend, Köln, Germany). Human liver microsomes were pooled from different donors and purchased from Sekisui XenoTech (Kansas City, KS, USA). In order to determine whether the compounds RD2D3 and cRD2D3 are stable or would be metabolized, 150 µM of each compound was incubated in triplicate for defined time points slightly shaking at 37 °C in the media described above (SGF and SIF: 4 and 8 h, plasma: 8, 24 and 48 h and microsomes: 8 and 24 h). Incubation was stopped by precipitating the proteins. For this, 3% trichloroacetic acid (w/v) was added to the respective sample under vortexing followed by a centrifugation step (14,000× g at 4 °C for 5 min). For analysis, supernatants containing the compounds were collected. The precipitated media without compound was used as a control and as reference for the quantification served each medium with compound where the reaction was stopped immediately by precipitating the proteins. All samples were analyzed by RP-HPLC as previously described.

The next data set deals with T1, Aβ(1-42)-oligomers (Homo sapiens, UniProt P05067).
T1 construct: Synthetic Aβ(1-42) and (Gln^22, Asn^23)-Amyloid β-Protein (1-40) (D/I Aβ) with >95% purity were purchased; purchased Bachem (Bubendorf, Switzerland); host or cells: chemical synthesis
Nature of the data set: QIAD assay, Aβ(1-42) oligomer elimination. Format: biochemical. The conditions noted are these: 80 µM Aβ(1-42) preincubated 2 h, 20 µM D-peptide, 30 min coincubation, density gradient fractions 4-6, RP-HPLC UV 214 nm, N = 2-5. As to the method:
According to Brener et al., a QIAD assay was performed in order to evaluate the Aβ(1-42) or D/I Aβ oligomer elimination efficacies of RD2D3 and cRD2D3 [18]. In short, 80 µM lyophilized Aβ(1-42) or 40 µM D/I Aβ was preincubated for 2 h or 15 min, respectively, to enrich Aβ-oligomers. Afterwards, either 20 µM RD2D3 or cRD2D3 for Aβ(1-42) or 10 µM RD2D3 or cRD2D3 for D/I Aβ were added to the preincubated solution and coincubated for additional 30 min. Subsequently, the samples were loaded on the top of a density gradient (5–50% (w/v) iodixanol (OptiPrep, Sigma-Aldrich, Darmstadt, Germany)) followed by an ultracentrifugation step (3 h at 4 °C and 259000× g (Optima TL-100, Beckman Coulter, Brea, CA, USA)). Following the ultracentrifugation, 14 fractions (140 µL each) were harvested by upward displacement. Fraction 15 contains the dissolved pellet in 6 M guanidine hydrochloride solution. Top fractions 1–2 contained Aβ-monomers, fractions 4–6 contained the Aβ-oligomers, which are of special interest, and the bottom fractions 11–14 contained high molecular weight (co-)precipitates or aggregated Aβ. Aβ(1-42) or D/I Aβ concentrations of each fraction were determined via analytical RP-HPLC and UV absorbance detection at 214 nm.

Data set [2] is described as follows: Body weight in i.p. treatment study. Format: in vivo. The conditions noted are these: Tg-SwDI mice, mean ± SEM; for Body weight before treatment: 11 months old, before 28 d i.p. osmotic minipump 8 mg/kg daily; for Body weight after treatment: after 28 d i.p. osmotic minipump 8 mg/kg daily. The protocol: Eleven months old Tg-SwDI were treated for 28 d i.p. by use of an osmotic minipump (Alzet osmotic pumps, Modell 1004, Charles River, Wilmington, MS, USA) with a daily dosage of 8 mg/kg peptide (RD2D3 (n = 14) or cRD2D3 (n = 12)) in PBS (pH 7.4) or vehicle (Placebo (n = 13), PBS, pH 7.4). The minipumps and the i.p. application route have been used to achieve continuous application of the study drug. After surgery, mice were monitored daily the following three days and twice each week until the end of the treatment. A loss of body weight and severe conspicuities were defined as exclusion criteria. No mouse was affected by these exclusion criteria. During the last one and a half weeks of treatment, different behavioral tests (nesting behavior, marble burying, open field test and MWM) were conducted with all mice.

The target in another data set is T2, Aβ(1-42) (Homo sapiens, UniProt P05067).
T2 construct: Synthetic Aβ(1-42) and (Gln^22, Asn^23)-Amyloid β-Protein (1-40) (D/I Aβ) with >95% purity were purchased; purchased Bachem (Bubendorf, Switzerland); host or cells: chemical synthesis
Nature of the data set: SPR, D-peptide immobilized, Aβ(1-42) monomers as analyte. Format: binding. The settings on record: D-peptide immobilized on series S CM-5 chip, Aβ(1-42) monomers analyte 0.0045-10 µM, 10 mM HEPES + 50 mM NaCl pH 7.4, 25 °C, steady-state Langmuir 1:1 fit (Fig. 1g), read-out: KD Aβ(1-42), D-peptide as ligand. As to the method: The dissociation constant (KD) of RD2D3 and cRD2D3 binding to Aβ(1-42) and D/I Aβ was determined by SPR spectroscopy using a Biacore T200 instrument (Biacore, GE Healthcare, Uppsala, Sweden). Aβ(1-42) or D/I Aβ was used as the ligand, while RD2D3 and cRD2D3 were used as the analyte or vice versa.
By using the compounds (RD2D3 and cRD2D3) as ligands, they were immobilized on two separate channels on a series S CM-5 sensor chip (Cytiva, GE Healthcare, Uppsala, Sweden) by amine coupling. Both flow cells on each channel were activated with a mixture of 50 mM N-hydroxysuccinimide (NHS) and 16.1 mM N-ethyl-N’-(dimethylaminopropyl)carbodiimide (EDC) (XanTec, Düsseldorf, Germany) for 7 min. The peptides were diluted to 50 µg/mL in 10 mM maleic acid pH 6 (AppliChem, Darmstadt, Germany) and injected over flow cell two of each channel to a final signal between 600 and 900 RU. After the peptides were immobilized, the ligand and reference flow cells of each channel were quenched by injecting 1 M ethanolamine pH 8.5 (XanTec, Düsseldorf, Germany) for 7 min. […] Aβ(1-42) or D/I Aβ were diluted in the running buffer to the following concentrations: 10 µM, 3.3 µM, 1.1 µM, 0.37 µM, 0.12 µM, […], 0.014 µM and 0.0045 µM. All samples were injected over the flow cells for 180 s, followed by a dissociation step of 600 s with running buffer. […]
On the technique in general: SPR reads the build-up and loss of mass on a sensor chip optically.

Like-named read-outs stand apart in the source and are kept apart here. Where a SMILES comes first, the peptide text is derived from it. [ ]: non-standard residue; d: D form.

T2 sequence (P05067 672-713): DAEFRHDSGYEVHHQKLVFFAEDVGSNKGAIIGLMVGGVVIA
T1 sequence (P05067 672-713): as above

What is called Kd is the equilibrium constant for the complex coming apart. Regarding `CC(C)C[C@H]1NC(=O)[C@@H](CCCNC(=N)N)NC(=O)[C@@H]([C@H](C)O)NC(=O)[C@@H](CCCNC(=N)N)NC(=O)[C@H]2CCCN2C(=O)[C@@H](CCCNC(=N)N)NC(=O)[C@@H](CCCNC(=N)N)NC(=O)[C@@H](CCCNC(=N)N)NC(=O)[C@@H](CCCNC(=N)N)NC(=O)[C@@H](CCCNC(=N)N)NC(=O)[C@@H](CCCNC(=N)N)NC(=O)[C@@H](CC(N)=O)NC(=O)[C@@H](Cc2c[nH]cn2)NC(=O)[C@@H]([C@H](C)O)NC(=O)[C@@H](Cc2c[nH]cn2)NC(=O)[C@@H](CC(C)C)NC(=O)[C@@H]([C@H](C)O)NC(=O)[C@H]2CCCN2C(=O)[C@@H](CCCNC(=N)N)NC(=O)[C@@H](CC(N)=O)NC(=O)[C@@H](CCCNC(=N)N)NC(=O)[C@@H](Cc2c[nH]cn2)NC(=O)[C@@H]([C@H](C)O)NC(=O)[C@@H](Cc2c[nH]cn2)NC1=O` [cRD2D3] (cyclo([dH][dN][dR][dR][dR][dR][dR][dR][dP][dR][dT][dR][dL][dH][dT][dH][dR][dN][dR][dP][dT][dL][dH][dT])), the remaining at 8 h, 150 µM in data set [1] (pooled human liver microsomes, 150 µM, 37 °C, 8 h, TCA precipitation, RP-HPLC, mean of three independent experiments, read-out: Stability in human liver microsomes, 8 h) came to 89.2%. Also, the remaining at 24 h, 150 µM in data set [1] (pooled human liver microsomes, 150 µM, 37 °C, 24 h, TCA precipitation, RP-HPLC, mean of three independent experiments, read-out: Stability in human liver microsomes, 24 h) was 73.6%. Besides, at Aβ(1-42)-oligomers, the “Elimination of toxic Aβ(1-42)-oligomers (QIAD)” value was 80%. In addition, in data set [2], the “Body weight before treatment” value was found to be 35.1 ± 1.4 g and the “Body weight after treatment” value is given as 33.2 ± 1.0 g. In addition, at Aβ(1-42), the equilibrium dissociation constant (Kd) stood at 5.63 ± 2.5 µM.
In data set [1] (human, microsomes), `CC(C)C[C@@H](NC(=O)[C@@H](CCCNC(=N)N)NC(=O)[C@H](NC(=O)[C@@H](CCCNC(=N)N)NC(=O)[C@H]1CCCN1C(=O)[C@@H](CCCNC(=N)N)NC(=O)[C@@H](CCCNC(=N)N)NC(=O)[C@@H](CCCNC(=N)N)NC(=O)[C@@H](CCCNC(=N)N)NC(=O)[C@@H](CCCNC(=N)N)NC(=O)[C@@H](CCCNC(=N)N)NC(=O)[C@@H](CC(N)=O)NC(=O)[C@@H](Cc1c[nH]cn1)NC(=O)[C@H](NC(=O)[C@@H](Cc1c[nH]cn1)NC(=O)[C@@H](CC(C)C)NC(=O)[C@H](NC(=O)[C@H]1CCCN1)[C@H](C)O)[C@H](C)O)[C@H](C)O)C(=O)N[C@H](Cc1c[nH]cn1)C(=O)N[C@@H](C(=O)N[C@H](Cc1c[nH]cn1)C(=O)N[C@H](CCCNC(=N)N)C(=O)N[C@H](CC(N)=O)C(=O)N[C@H](CCCNC(=N)N)C(N)=O)[C@H](C)O` [RD2D3] (H-[dP][dT][dL][dH][dT][dH][dN][dR][dR][dR][dR][dR][dR][dP][dR][dT][dR][dL][dH][dT][dH][dR][dN][dR]-NH2) came in with a remaining at 8 h, 150 µM of 81.9% and a remaining at 24 h, 150 µM of 78.2%. Also, in data set [2], the “Body weight before treatment” value came to 33.2 ± 2.6 g and the “Body weight after treatment” value is 34.3 ± 0.6 g. Also, the Kd on Aβ(1-42) amounted to 18.4 ± 6.5 µM.
